One test deals with A549 cells. In words: CCK-8 proliferation assay, A549. Format: cell-based, human. As to conditions: Homo sapiens, A549; 48 h, CCK-8, mean ± SD. As to the method: (§1) All synthesized β-lactam-azide derivatives were evaluated for their antiproliferative activity against three cancer cell lines (MGC-803, MCF-7, A549) using CCK-8 proliferation assay. The well-known anticancer drug CA-4P was used as a control[36],[37].
(§2) MGC-803 cell line was obtained from the Chinese Academy of Sciences (Shanghai, China). MCF-7 and A549 were from the National Cell Center, China. MGC-803 cells were cultured in DMEM culture medium (DMEM, Biological Industries, Kibbutz Beit Haemek, Israel). A549 and MCF-7 cells were cultured in 1640 medium (1640, Biological Industries, Kibbutz Beit Haemek, Israel). All medium were supplemented with 10% fetal bovine serum, 100 U/ml penicillin (North China Pharmaceutical group Co.), and 100 µg/ml streptomycin (North China Pharmaceutical group Co.). All cells were cultured at 37 °C in a humidified incubator containing 5% CO2.
(§3) Synthesized analogues used in the study were dissolved in 100% cell culture grade DMSO and the final concentration of DMSO as <0.1% for testing on cancer cell lines. Cytotoxicity assays were performed on the human gastric carcinoma cell line MGC-803, the human mammary carcinoma cell line MCF-7, the human lung carcinoma cell line A549. Cells (3500–5000/well) were seeded into 96-well plates in 100 µL of culture medium. The cells were treated in triplicate with a gradient concentration of testing compounds and incubated at 37 °C, 5% CO2 for 48 h. For all cell lines, CCK-8 assay was performed to measure cytotoxic effects. The absorbance was measured using a microplate reader (BioTek Instrument, Inc. Vermont, USA) with a test wavelength of 450 nm. The absorbance levels were corrected against untreated control absorbance values. All experiments were performed in triplicate and SPSS17.0 was used for data analysis to obtain IC50 values.

The test system of test [1] is MGC-803 cells. In words: Cell scarification assay. Conditions: time-dependent and concentration-dependent. Format: cell-based, human. As to the method:
(§4) In a transwell test, the average numbers of migrated cells in fields of control, 0.1 and 0.2 μM 28 treated MGC-803 cells were 29.4, 22.4 and 16.6, respectively (Fig. 6B and C). Based on the results from these tests, we next examined the protein expression of EMT-related makers such as E-cadherenin, N-cadherenin, ZO-1 and Vementin[55].
MGC-803 cells were seeded in 6-well plate until cells grew to confluence. Tips were used to make a scratch on cells. Control and 28 contained culture media without fetal bovine serum were added subsequently after 3 times of washing by PBS. Then the cells were cultured at 37 °C in a humidified incubator containing 5% CO2 and photos taken at 0, 16, 24 and 48 h, respectively.

Test [2] has as its system MGC-803 cells. In words: Transwell cell migration assay. It counts as cell-based, human. Conditions: 24 h (control 29.4). As to the method:
as §4
The test was performed in a transwell plate (Corning). MGC-803 cells were added to the upper chamber of a transwell plate. Control and different concentrations of 28 solutions were added to both upper and bottom chambers. Then the transwell plate was cultured at 37 °C in a humidified incubator containing 5% CO2 for 24 h. The next day, all contents in the upper chamber were removed and wiped by cotton buds. Alcohol was used to fix, and the crystal violet was used to stain the transwell for 30 min. After washed by PBS the cell chambers were observed and photos taken. The cell number of the migrated cells through the transwell was calculated by counting 5 visual fields of each group (P < 0.05)[55],[56].

The subject of test [3] is colchicine-binding site of β-tubulin. In words: EBI competition assay. It counts as cell-based, human. As to conditions: preincubation 0.25 and 5 μM, 2 h; EBI 100 μM.
Description: Six-well plates were seeded with MGC-803 cells at 5 × 10^5 cells per well. […] After 2 h, the cells were harvested and cell extracts were prepared for Western blot analysis. 20 μg of proteins was subjected to gel electrophoresis using 10% polyacrylamide gels. The proteins were transferred onto PVDF membranes, then blocked by 5% nonfatmilk for 1 h, and subsequently incubated with anti-β-tubulin antibody for 16 h at 4 °C. Next, the membranes were washed extensively and immunoreactive proteins were finally detected by chemiluminescence.
For test [4], the system named is MGC-803 cells. In words: Cell cycle analysis by flow cytometry. Format: cell-based, human. As to conditions: for G2/M population: 24 h (Fig. 3A). As to the method:
MGC-803 cells were incubated in the absence and presence of 28. Subsequently, the cells were fixed with 70% alcohol in PBS. The fixed cells were incubated with RNase (1 µg/mL) propidium iodide (50 µg/mL) for 2 h. Flow cytometry analysis was performed using BD FACS (Becton Dickinson, San Jose, CA, USA).

The test system of a further test is MCF-7 cells. In words: CCK-8 proliferation assay, MCF-7. Conditions: Homo sapiens, MCF7; 48 h, CCK-8, mean ± SD. Format: cell-based, human. As to the method:
as §1, §2, §3

For test [5], the system named is MGC-803 cells. In words: CCK-8 proliferation assay, MGC-803. Format: cell-based, human. Conditions: Homo sapiens, MGC-803; 48 h, CCK-8, mean ± SD. As to the method: as §1, §2, §3
Test [6] relates to three cancer cell lines (MGC-803, MCF-7, A549). In words: CCK-8 proliferation assay, three cancer cell lines together. It counts as cell-based. Conditions: Homo sapiens, 48 h, read-out: IC50 values toward three cancer cell lines. As to the method:
as §1, §2
Synthesized analogues used in the study were dissolved in 100% cell culture grade DMSO and the final concentration of DMSO as <0.1% for testing on cancer cell lines. […] The absorbance was measured using a microplate reader (BioTek Instrument, Inc. Vermont, USA) with a test wavelength of 450 nm. The absorbance levels were corrected against untreated control absorbance values. […]

For test [7], the system named is MGC-803 cells. In words: Western blot of EMT-related markers. It counts as cell-based, human. As to the method: as §4

Each structure is given as a SMILES string.

`COc1cc(N2C(=O)[C@H](c3cccs3)[C@H]2c2cccc(N=[N+]=[N-])c2)cc(OC)c1OC` (relative stereo) [Compound 28, trans-4-(3-azidophenyl)-3-(thiophen-2-yl)-1-(3,4,5-trimethoxyphenyl)azetidin-2-one]: the IC50 with A549 cells is 507 ± 52 nM; with MCF-7 cells it was 421 ± 47 nM; in the test on MGC-803 cells [5], 106 ± 1 nM; in [6] it was 106 to 507 nM. Moreover, in the test on MGC-803 cells [1], the “distances of scratches compared to control” value is reported as “obviously increased”. Further, the “average number of migrated cells in fields” value is 22.4 in the test on MGC-803 cells [2] (0.1 μM) and 16.6 with MGC-803 cells [2] (0.2 μM). The “formation of the EBI: β-tubulin adduct” value in [3] is given as “dose-dependently prevented the formation of the EBI: β-tubulin adduct”. In addition, the “cells at the G2/M phase” value came to 12.63% with MGC-803 cells [4] (0.1 μM, 12 h (Fig. 3C)) and 44.59% in the test with MGC-803 cells [4] (0.1 μM, 36 h (Fig. 3C)). Also, the G2/M population amounted to 14.13% in the test on MGC-803 cells [4] (0.1 μM), 23.42% with MGC-803 cells [4] (0.2 μM) and 44.37% in the test with MGC-803 cells [4] (0.3 μM). Also, in the test on MGC-803 cells [7], the “expression of E-cadherin and ZO-1” value is reported as “up-regulated”. In the test with MGC-803 cells [7], the “expression of N-cadherin and vimentin” value is given as “down-regulated”.

Source of the values: paper PMC5630639 (Scientific Reports, 2017).
